Data set [1] deals with T1, 5-HT4 receptors (Rattus norvegicus, UniProt Q62758).
T1 construct: The remaining inner tube of smooth muscle was known as the TMM; from tissue; host or cells: rat oesophagus tunica muscularis mucosae (TMM), male SD rats (Charles River)
In words: Functional assay: rat oesophagus TMM relaxation. The settings on record: carbachol-contracted rat oesophagus TMM, 1 μM antagonist. An excerpt:
More specifically, partial agonist activity can be measured according to the following procedures.
Male SD rats (Charles River) weighing 250-350 g were stunned and then killed by cervical dislocation. The oesophagus was dissected from immediately proximal to the stomach (including piece of stomach to mark distal end) up to the level of the trachea and then placed in fresh Krebs' solution.
The outer skeletal muscle layer was removed in one go by peeling it away from the underlying smooth muscle layer using forceps (stomach to tracheal direction). The remaining inner tube of smooth muscle was known as the TMM. This was trimmed to 2 cm from the original ‘stomach-end’ and the rest discarded.
The TMMs were mounted as whole ‘open’ tubes in longitudinal orientation in 5 ml organ baths filled with warm (32° C.) aerated Krebs. Tissues were placed under an initial tension of 750 mg and allowed to equilibrate for 60 minutes. The tissues were re-tensioned twice at 15 minute intervals during the equilibration period. The pump flow rate was set to 2 ml/min during this time.
Following equilibration, the pump was switched off. The tissues were exposed to 1 μM carbachol and contracted and reached a steady contractile plateau within 15 minutes. Tissues were then subject to 1 μM 5-HT (this was to prime the tissues). The tissues relaxed in response to 5-HT fairly rapidly—within 1 minute. […]

T1 sequence (Q62758 whole entry): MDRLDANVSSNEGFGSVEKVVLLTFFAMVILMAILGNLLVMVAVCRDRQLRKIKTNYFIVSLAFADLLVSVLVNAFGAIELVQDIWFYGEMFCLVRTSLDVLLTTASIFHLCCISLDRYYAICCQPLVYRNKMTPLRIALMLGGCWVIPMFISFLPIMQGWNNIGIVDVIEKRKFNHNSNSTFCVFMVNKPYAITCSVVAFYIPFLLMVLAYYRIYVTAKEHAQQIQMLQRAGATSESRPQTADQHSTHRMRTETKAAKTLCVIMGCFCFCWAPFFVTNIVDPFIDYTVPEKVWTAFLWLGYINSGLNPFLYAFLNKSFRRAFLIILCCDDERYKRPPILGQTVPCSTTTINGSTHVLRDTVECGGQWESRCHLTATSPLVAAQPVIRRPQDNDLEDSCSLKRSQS

`CCCc1cn2c(N)ccc(C(=O)NC3CCN(CCCOC)CC3)c2n1.Cl` returned a melting point of 238 °C.
As to `CCc1cn2c(N)c(Cl)cc(C(=O)NC3CCN(CCCOC)CC3)c2n1`, the melting point stood at 179 °C.
Regarding `CCc1cn2c(N)c(Cl)cc(C(=O)NCC3CCN(CCC(C)(C)C)CC3)c2n1`, the melting point turned out to be 234 °C.
In turn, `Cc1cn2c(N)c(Cl)cc(C(=O)NCC3CCN(CC(C)C)CC3)c2n1` yielded a melting point of 216 to 219 °C.
In the case of `CCCCN1CCC(CNC(=O)c2ccc(N)n3cc(Cl)nc23)CC1`, the melting point was determined as 113 °C.
Still for that read-out and setting: the value for `CCCCN1CCC(CNC(=O)c2cc(Cl)c(N)n3cc(C(C)C)nc23)CC1` was 168 °C; that for `CCCCN1CCC(CNC(=O)c2ccc(N)n3cc(CCC)nc23)CC1` was 172 °C.
The same measure, in the same setting: the value for `COC(C)(C)CN1CCC(CNC(=O)c2cc(Cl)c(N)n3cc(C)nc23)CC1` was 211 °C.
`CCCCN1CCC(CNC(=O)c2cc(Cl)c(N)n3cc(C)nc23)CC1` yielded a melting point of 188 to 191 °C.
On the same count and under the same terms, the value for `CCc1cn2c(N)c(Cl)cc(C(=O)NCC3CCN(CC(C)(C)OC)CC3)c2n1` was 211 °C; that for `CCCCN1CCC(CNC(=O)c2cc(Cl)c(N)n3cc(-c4ccccc4)nc23)CC1.Cl` was 263 °C; that for `CCCCN1CCC(CNC(=O)c2ccc(N)n3cc(C(C)C)nc23)CC1` was 138 °C.
As for `CCCCN1CCC(CNC(=O)c2ccc(N)n3cc(CC)nc23)CC1`, the melting point lay within 139 to 145 °C.
On to `O=C(OCCN1CCCCC1)c1c[nH]c2ccccc12` [SB 203,186, 1H-Indole-3-carboxylic acid, 2-(1-piperidinyl)ethyl ester], for which, in data set [1], the “reversal of 5-HT induced relaxation” value was “reversed 5-HT induced relaxation”.
`CNc1c(Cl)cc(C(=O)NCC2CCN(CCCOC)CC2)c2nccn12` registered a melting point of 125 °C.
Compound `CCCc1cn2c(N)c(Cl)cc(C(=O)NC3CCN(CCCOC)CC3)c2n1.Cl` showed a melting point of 243 °C.
Same read-out and setting: the value for `CCCCN1CCC(CNC(=O)c2cc(Cl)c(NC)n3ccnc23)CC1` was 148 °C; that for `CCCCN1CCC(CNC(=O)c2ccc(N)n3cc(-c4ccccc4)nc23)CC1` was 221 °C.
On the same count and under the same terms, the value for `COCCCN1CCC(CNC(=O)c2cc(Cl)c(N)n3cc(C)nc23)CC1` was 167 °C.
On the same count and under the same terms, the value for `CCc1cn2c(N)c(Cl)cc(C(=O)NCC3CCNCC3)c2n1` was 153 °C.

The term melting point denotes the temperature of the solid-liquid transition.
